Data on two compounds can be found in ChEMBL document CHEMBL1122817, “Synthesis and biological activity of substituted [[3(S)-(acylamino)-2-oxo-1-azetidinyl]oxy]acetic acids. A new class of heteroatom-activated beta-lactam antibiotics” (1985).

Assay [1] concerns Proteus vulgaris. As to the kind of experiment: Inhibitory activity against Proteus vulgaris X45 at 1 mg/mL concentration using Agar disk plate assay. Format: functional.
The subject of assay [2] is Serratia marcescens. As to the kind of experiment: Inhibitory activity against Serratia marcescens X99 at 1 mg/mL concentration using Agar disk plate assay. The format is functional.
Assay [3] concerns Escherichia coli. Description: Inhibitory activity against Escherichia coli X161M at 1 mg/mL concentration using Agar disk plate assay. The format is functional.
Assay [4] deals with Escherichia coli. As to the kind of experiment: Inhibitory activity against Escherichia coli X580 at 1 mg/mL concentration using Agar disk plate assay. The format is functional.
Assay [5] has as its system Escherichia coli. As to the kind of experiment: Inhibitory activity against Escherichia coli X161 at 1 mg/mL concentration using Agar disk plate assay. The format is functional.
The test system of assay [6] is Salmonella enterica subsp. enterica serovar Gallinarum. Description: Inhibitory activity against Salmonella gallinarum X142 at 1 mg/mL concentration using Agar disk plate assay. Format: functional.
Assay [7] concerns Escherichia coli. Description: Inhibitory activity against Escherichia coli X161 at 10 mg/mL concentration using Agar disk plate assay. The format is functional.
For assay [8], the system named is Klebsiella pneumoniae. As to the kind of experiment: Minimum inhibitory concentration against Klebsiella pneumoniae X68. The format is functional.
In assay [9] the test system is Serratia marcescens. As to the kind of experiment: Minimum inhibitory concentration against Serratia marcescens X99. The format is functional.
The test system of assay [10] is Escherichia coli. Description: Minimum inhibitory concentration against Escherichia coli TEM. Format: functional.
Assay [11] has as its system Enterobacter cloacae. Description: Minimum inhibitory concentration against Enterobacter cloacae 265A. Format: functional.
A further assay concerns Citrobacter freundii. Description: Minimum inhibitory concentration against Citrobacter freundii CF17. The format is functional.
Assay [12] deals with Escherichia coli. As to the kind of experiment: Inhibitory activity against Escherichia coli X580 at 10 mg/mL concentration using Agar disk plate assay. The format is functional.
The next assay relates to Proteus inconstans. Description: Minimum inhibitory concentration against Proteus inconstans PR33. The note with it: Providencia alcalifaciens. The format is functional.
The next assay relates to Ralstonia solanacearum. Description: Inhibitory activity against Pseudomonas solanacearum X185 at 10 mg/mL concentration using Agar disk plate assay. The format is functional.
The subject of assay [13] is Haemophilus influenzae. As to the kind of experiment: Minimum inhibitory concentration against Haemophilus influenza C.L. The format is functional.
For assay [14], the system named is Enterobacter cloacae. As to the kind of experiment: Minimum inhibitory concentration against Enterobacter cloacae EB5. The format is functional.
The subject of assay [15] is Klebsiella aerogenes. As to the kind of experiment: Minimum inhibitory concentration against Enterobacter aerogenes EB 17. The format is functional.
For assay [16], the system named is Escherichia coli. Description: Minimum inhibitory concentration against Escherichia coli EC14. Format: functional.
The subject of assay [17] is Klebsiella pneumoniae. Description: Minimum inhibitory concentration against Klebsiella pneumoniae KAE. Format: functional.
Assay [18] deals with Salmonella typhi. Description: Minimum inhibitory concentration against Salmonella typhi X514. The format is functional, Salmonella enterica subsp. enterica serovar Typhi. To be noted: Salmonella enterica.
Assay [19] deals with Staphylococcus epidermidis. Description: Minimum inhibitory concentration against Staphylococcus epidermidis (2 strains). Format: functional.
The test system of assay [20] is Escherichia coli. As to the kind of experiment: Minimum inhibitory concentration against Escherichia coli N10. The format is functional.
In assay [21] the test system is Klebsiella pneumoniae. Description: Minimum inhibitory concentration against Klebsiella pneumoniae X26. The format is functional.
Assay [22] deals with Acinetobacter calcoaceticus. As to the kind of experiment: Minimum inhibitory concentration against Acinetobacter calcoaceticus AC12. The format is functional.
A further assay concerns Micrococcus luteus. As to the kind of experiment: Inhibitory activity against Sarcina lutea X186 at 10 mg/mL concentration using Agar disk plate assay. Format: functional.
Assay [23] concerns Salmonella typhi. As to the kind of experiment: Minimum inhibitory concentration against Salmonella typhi 1335. Format: functional, Salmonella enterica subsp. enterica serovar Typhi. The note with it: Salmonella enterica.
A further assay relates to Streptococcus pneumoniae. As to the kind of experiment: Minimum inhibitory concentration against Streptococcus pneumoniae Park I. Format: functional.
Assay [24] has as its system Serratia marcescens. As to the kind of experiment: Minimum inhibitory concentration against Serratia marcescens SE3. The format is functional.
Assay [25] deals with Klebsiella aerogenes. As to the kind of experiment: Minimum inhibitory concentration against Enterobacter aerogenes C32. The format is functional.
The test system of another assay is Morganella morganii. As to the kind of experiment: Minimum inhibitory concentration against Proteus morganii PR15. Format: functional.
Assay [26] concerns Haemophilus influenzae. As to the kind of experiment: Minimum inhibitory concentration against Haemophilus influenza 76. Format: functional.
Another assay concerns Streptococcus pyogenes. As to the kind of experiment: Minimum inhibitory concentration against Streptococcus pyogenes C203. The format is functional.
For a further assay, the system named is Streptococcus. As to the kind of experiment: Minimum inhibitory concentration against Streptococcus sp. Group D (2 strains). Format: functional.
In assay [27] the test system is Geobacillus stearothermophilus. Description: Inhibitory activity against Bacillus Stearothermophilus C451 at 10 mg/mL concentration using Agar disk plate assay. Format: functional.
Assay [28] has as its system Escherichia coli. As to the kind of experiment: Inhibitory activity against Escherichia coli X161M at 10 mg/mL concentration using Agar disk plate assay. The format is functional.
Another assay has as its system Staphylococcus aureus. As to the kind of experiment: Minimum inhibitory concentration against Staphylococcus aureus (4 strains). The format is functional.
The subject of assay [29] is Proteus vulgaris. Description: Inhibitory activity against Proteus vulgaris X45 at 10 mg/mL concentration using Agar disk plate assay. The format is functional.
The subject of assay [30] is Serratia marcescens. As to the kind of experiment: Inhibitory activity against Serratia marcescens X99 at 10 mg/mL concentration using Agar disk plate assay. Format: functional.
In the next assay the test system is Providencia rettgeri. As to the kind of experiment: Minimum inhibitory concentration against Proteus rettgeri C24. The format is functional.
For a further assay, the system named is Pseudomonas aeruginosa. As to the kind of experiment: Minimum inhibitory concentration against Pseudomonas aeruginosa (4 strains). The format is functional.
For assay [31], the system named is Salmonella enterica subsp. enterica serovar Gallinarum. Description: Inhibitory activity against Salmonella gallinarum X142 at 10 mg/mL concentration using Agar disk plate assay. Format: functional.
The subject of a further assay is Bacillus subtilis. Description: Inhibitory activity against Bacillus Subtilis X12M at 10 mg/mL concentration using Agar disk plate assay. The format is functional.

The structures appear in SMILES notation.

Turning to `CO/N=C(\C(=O)N[C@@H]1C(=O)N(O[C@H](OC(C)=O)C(=O)[O-])[C@H]1C)c1csc(N)n1.[K+]`, the Zone of inhibition with Proteus vulgaris [1] was determined as 28 mm; with Serratia marcescens [2] it was 24 mm; in the assay with Escherichia coli [3], 30 mm; with Escherichia coli [4] it was 46 mm; with Escherichia coli [5] it was 17 mm; in assay [6], 25 mm.
Take `CO/N=C(/C(=O)N[C@H]1CN(OCC(=O)[O-])C1=O)c1csc(N)n1.[K+]`: the Zone of inhibition turned out to be 20 mm in the assay on Escherichia coli [7]; 37 mm in the assay on Escherichia coli [12]; 16 mm in the assay on Ralstonia solanacearum; 21 mm in the assay on Micrococcus luteus; 24 mm in [27]; 19 mm in the assay on Escherichia coli [28]. Moreover, the Zone of inhibition was determined as 21 mm with Proteus vulgaris [29], 16 mm in the assay on Serratia marcescens [30], 22 mm in [31] and 13 mm in the assay with Bacillus subtilis. Further, the MIC is 8 µg/mL in the assay on Klebsiella pneumoniae [8]; 16 µg/mL against Serratia marcescens [9]; 32 µg/mL in the assay with Escherichia coli [10]; more than 64 µg/mL with Enterobacter cloacae [11]; 16 µg/mL against Citrobacter freundii; 2 µg/mL in the assay on Proteus inconstans. Also, the MIC was 16 µg/mL against Haemophilus influenzae [13]; 16 µg/mL in the assay on Enterobacter cloacae [14]; 8 µg/mL in the assay with Klebsiella aerogenes [15]; 4 µg/mL with Escherichia coli [16]; more than 64 µg/mL with Klebsiella pneumoniae [17]; 4 µg/mL against Salmonella typhi [18]. In addition, the MIC in [19] is more than 64 µg/mL; with Escherichia coli [20], 8 µg/mL; in the assay with Klebsiella pneumoniae [21] it was 8 µg/mL; in [22], more than 64 µg/mL; in the assay with Salmonella typhi [23], 8 µg/mL; in the assay with Streptococcus pneumoniae, 32 µg/mL. In addition, the MIC is 16 µg/mL with Serratia marcescens [24]; 8 µg/mL against Klebsiella aerogenes [25]; 32 µg/mL against Morganella morganii; 16 µg/mL against Haemophilus influenzae [26]; 16 µg/mL against Streptococcus pyogenes; more than 64 µg/mL against Streptococcus. The values for the MIC with Staphylococcus aureus, with Providencia rettgeri and in the assay with Pseudomonas aeruginosa were more than 64 µg/mL, 2 µg/mL and more than 64 µg/mL, respectively.
